Where “and” joins values, the source holds several entries; their conditions need not be identical. Equal entries are not always repeated. Where two headings read alike, the source gives them in different places. Marks after values point to notes of the source that are not given here. Values belong to the substance of their own block, whether it stands above or below them. Where no end group is shown, it is not given here.
What was measured:
I-A^d = conditions: cited from earlier work
Excerpt: Table 1 Alternate registers within OVA 323–339. | column: Dissociation rate constants ^a / (k d, s^−1) || Peptide-MHC complex stability correlates broadly with immunogenicity, [21], as stable epitopes are more prevalent on the cell surface, and subsequently more likely to be recognized by responding T cells. Stability is commonly approximated as the dissociation rate of fluorescently labeled peptide from soluble MHC, although this approach can be complicated by highly overlapping registers. […] Supporting the thermodynamic stability of register one, a complex between the 323–339 peptide and I-A^d was cr ... || The HEL epitope consisting of residues 11 through 25 (HEL11-25) has been characterized as a weak MHC binder when presented by I-A^d, with a short half-life of approximately six hours that presumably results from a poorly accommodated arginine side chain in the P1 pocket. We compared the activities of wild type HEL11-25 to a variant in which the native P-4 to P-2 sequence was replaced with OVA-specific residues (QAV13-25) and a control in which these three residues were adjusted to GGS (GGS13-25). Since these changes lengthen the HEL11-25 peptide by a single amino acid, a control in whic ...

[1] = tested on: HEL11–25 responsive T cell hybridoma; conditions: synthetic HEL peptide; A20 + HEL11-25 hybridoma cells, 24 h; IL-2 ELISA; 3-parameter curve fits of aggregate data from at least two experiments
Procedure: We compared the activities of wild type HEL11-25 to a variant in which the native P-4 to P-2 sequence was replaced with OVA-specific residues (QAV13-25) and a control in which these three residues were adjusted to GGS (GGS13-25). Since these changes lengthen the HEL11-25 peptide by a single amino acid, a control in which the HEL11-25 peptide was appended with an N-terminal glycine in position P-3 (G11-25) was also analyzed.
Each well of a 96-well plate was seeded with 15,000 A20 cells, 15,000 T cell hydridoma cells and peptide, malE chimera protein or control peptide/protein per well in DMEM media without L-glutamine, except where noted. After a 24-hour incubation at 37°C, 5% CO2, supernatant was transferred to a new plate and stored at −80°C prior to IL-2 quantification assays. All peptide/protein doses were performed in triplicate wells and all experiments replicated at least twice.
For malE chimeras and control protein experiments, the relevant protein was thawed, concentrated using 30K molecular weight cut-off centrifugal filter units (Millipore UFC903024) and filter-sterilized. Proteins were then quantified via absorbance at 280 nm using a predicted extinction coefficient and molecular weight, diluted to equal concentrations, the concentration confirmed and serially diluted in 96-well plates. […] Proteins were pre-incubated for four hours with antigen presenting cells (A20 or 3A5) cells prior to a 24-hour incubation with T cell hybridomas. The IL-2 concentration in the supernatant was quantified using a matched pair ELISA quantified with an IL-2 standard as described (BD #555148). All experiments were performed at least twice, and all wells were measured in triplicate. Data was analyzed with Graphpad Prism 5 (La Jolla, CA).

DO11.10 T cell hybridoma [2] = assay: DO11.10 hybridoma IL-2 secretion with A20 antigen presenting cells and exogenous OVA peptide variants; format: cell-based, murine; conditions: synthetic peptide; 15,000 A20 + 15,000 DO11.10 cells per well, 24 h, 37°C, DMEM without L-glutamine; IL-2 by matched pair ELISA; 3-parameter curve fits of aggregate data from at least two experiments
Procedure: Two previous reports described anchor substitutions to stabilize register four. […] To assess the relative success of these attempts, we synthesized both variants, along with an N-terminally truncated version of the Robertson peptide (328–339 EIVS; Table 2) to remove the effects of flanking residues which we hypothesized would promote register masking. To assess peptide activity, DO11.10 hybridomas were incubated for 24 hours with I-A^d+ A20 lymphoma cells in the presence of peptide, and supernatant was subsequently assessed for the presence IL-2 by a matched pair ELISA as a measure of T cell activation. […]
(§1) Each well of a 96-well plate was seeded with 15,000 A20 cells, 15,000 T cell hydridoma cells and peptide, malE chimera protein or control peptide/protein per well in DMEM media without L-glutamine, except where noted. After a 24-hour incubation at 37°C, 5% CO2, supernatant was transferred to a new plate and stored at −80°C prior to IL-2 quantification assays. […]
For malE chimeras and control protein experiments, the relevant protein was thawed, concentrated using 30K molecular weight cut-off centrifugal filter units (Millipore UFC903024) and filter-sterilized. Proteins were then quantified via absorbance at 280 nm using a predicted extinction coefficient and molecular weight, diluted to equal concentrations, the concentration confirmed and serially diluted in 96-well plates. […]

DO11.10 T cell hybridoma [3] = assay: DO11.10 hybridoma IL-2 secretion with A20 cells and malE chimeras containing OVA epitope variants; format: cell-based, murine; conditions: malE chimera protein pre-incubated 4 h with A20 cells, then 24 h with DO11.10, IL-2 ELISA, 3-parameter curve fits of aggregate data from at least two experiments
Excerpt: Peptide sequences were introduced into the exposed loop in place of residues 133–140 as first described by Martineau et al., with a glycine-serine extension (GSGSG) appended to the N-terminus of inserted epitopes to increase solubility (Figure 3A, Table 4). The activity of the N-terminally truncated peptides in MBP (325–337, 327–337, 328–337) indicates a maintained preference for wild type flanking residues as was previously observed with synthetic peptides (Figure 3A, Table 4). […] The increased activity of variants retaining the wild type P-3 and P-4 residues of register four during intracellular processing again supports their direct role in mediating the peptide and MHC interaction. […]
as §1
For malE chimeras and control protein experiments, the relevant protein was thawed, concentrated using 30K molecular weight cut-off centrifugal filter units (Millipore UFC903024) and filter-sterilized. […] The IL-2 concentration in the supernatant was quantified using a matched pair ELISA quantified with an IL-2 standard as described (BD #555148). […]

[4] = apparent first order dissociation constant of presumed isolated register from purified I-A^d, single exponential fits to monophasic dissociation data

Substance: 323–335 Q325A: literature OVA 323–335 peptide with alanine at position 325, used for register 1 dissociation
Dissociation rate constants (k d, s^−1) (I-A^d; [4]): 2.3e-06 s⁻¹

Substance: 325–336: literature OVA 325–336 peptide used for register 3 dissociation
Dissociation rate constants (k d, s^−1) (I-A^d; [4]): 2.6e-06 s⁻¹

Substance: 327–339 V327K: literature OVA 327–339 peptide with lysine at position 327, used for register 4 dissociation
Dissociation rate constants (k d, s^−1) (I-A^d; apparent first order dissociation constant from purified I-A^d, back-calculated from reported half-life of dissociation): 0.0006 s⁻¹
half-life of peptide dissociation from I-A^d (I-A^d; register four core truncated at P-2, P-2 valine altered to lysine): around twenty

Substance: AMKRHGLDNYRGYSL [HEL11-25]
Max response (ng/ml IL-2) [1]: 0.7 ng/ml IL-2
half-life when presented by I-A^d (I-A^d): approximately six

Substance: GAMKRHGLDNYRGYSL [Peptide G11-25]
Max response (ng/ml IL-2) [1]: 0.7 ng/ml IL-2

Substance: GGSKRHGLDNYRGYSL [GGS13-25]
Max response (ng/ml IL-2) [1]: 0.5 ^* ng/ml IL-2

Substance: ISQAVHAAHAEINEAGR [323–339]
EC50 (DO11.10 T cell hybridoma [2]): 1.6 µM

EC50 (DO11.10 T cell hybridoma [3]; read-out: EC50 (µM peptide)): 18 µM
Substance: MalE chimera 325–337: maltose binding protein with OVA 325–337 replacing malE residues 133–140
Max response (ng/ml IL-2) (DO11.10 T cell hybridoma [3]): 1.1 ^* ng/ml IL-2

Substance: QAVKRHGLDNYRGYSL [QAV13-25]
Max response (ng/ml IL-2) [1]: 1.5 ng/ml IL-2 and 1.5 ^* ng/ml IL-2
